In PubChem BioAssay (NCI) one finds GI50 and TGI data, which are given here for nine compounds.

Test systems include ACHN renal; M14 melanoma; SN12C renal; HOP-62 NSCLC; HOP-92 NSCLC; U251 CNS; NCI-H226 lung; MOLT-4 leukemia; SW-620 colon; SK-MEL-28 melanoma.
Assay in all cases: NCI-60 cell line screen, 48 h

SMILES strings stand for the structures.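 Method: 48-hour compound exposure of cells in 96-well plates, five concentrations, linear interpolation of endpoints. Here, GI50 denotes the concentration required for 50% inhibition of growth. Definition used: TGI = concentration required for complete inhibition of growth.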

As for `Cc1ccc(C(SCC(N)C(=O)O)(c2ccccc2)c2ccc(C)cc2)cc1` (stereo not given), the GI50 in the assay on ACHN renal was 1780 nM; with M14 melanoma, 31.6 nM; with SN12C renal, 2330 nM; in the assay with HOP-62 NSCLC, 2000 nM; in the assay on HOP-92 NSCLC, 1190 nM; with U251 CNS, 101 nM. The GI50 in the assay on NCI-H226 lung was 3.02 µM; in the assay on MOLT-4 leukemia, 2700 nM; in the assay with SW-620 colon, 153 nM; in the assay with SK-MEL-28 melanoma, 2090 nM. The TGI in the assay on ACHN renal was 36.3 µM; with M14 melanoma it was 0.147 µM; with SN12C renal it was 23.8 µM; in the assay with HOP-62 NSCLC it was 18.9 µM; in the assay on HOP-92 NSCLC, 22.4 µM; with U251 CNS, 15.5 µM. The TGI was 25.8 µM with NCI-H226 lung, more than 48.2 µM in the assay on MOLT-4 leukemia, 14.8 µM with SW-620 colon and 23.7 µM in the assay on SK-MEL-28 melanoma.
In the case of `C[As](C)SC1OC(CO)C(O)C1O` (stereo not given), the GI50 is 257 nM with ACHN renal; 232 nM with M14 melanoma; 312 nM with SN12C renal; 3580 nM in the assay on HOP-62 NSCLC; 88.4 nM in the assay on HOP-92 NSCLC; 709 nM in the assay with U251 CNS. Moreover, the GI50 in the assay on NCI-H226 lung is 1.18 µM; with MOLT-4 leukemia, 174 nM; with SW-620 colon, 391 nM; with SK-MEL-28 melanoma it was 522 nM. Further, the TGI in the assay with ACHN renal was found to be 1.03 µM; in the assay with M14 melanoma, 0.767 µM; in the assay on SN12C renal, 1.52 µM; in the assay with HOP-62 NSCLC, 13.4 µM; in the assay on HOP-92 NSCLC, 0.955 µM; in the assay with U251 CNS, 3.2 µM. Besides, the TGI is 5.21 µM with NCI-H226 lung, 0.957 µM with MOLT-4 leukemia, 1.61 µM in the assay with SW-620 colon and 5.45 µM in the assay on SK-MEL-28 melanoma.
For the compound `O=C1c2ccccc2C(=O)C1(Cl)C1(S(=O)(=O)O)c2ccccc2-c2ccccc21`, the TGI in the assay on ACHN renal, in the assay on M14 melanoma, in the assay with SN12C renal, with HOP-62 NSCLC, in the assay with HOP-92 NSCLC and in the assay with U251 CNS was more than 100 µM throughout. Also, the TGI with NCI-H226 lung, with MOLT-4 leukemia, with SW-620 colon and in the assay on SK-MEL-28 melanoma was more than 100 µM throughout.
With `Cc1ccc(Cl)cc1Nc1nc(C(F)(F)F)ccc1C(=O)N1CCN(c2ccc(F)cc2)CC1`, the GI50 is 11800 nM with ACHN renal; 15000 nM with M14 melanoma; 15000 nM in the assay with SN12C renal; 14700 nM with HOP-62 NSCLC; 12500 nM in the assay on HOP-92 NSCLC; 12500 nM in the assay with U251 CNS. Moreover, the GI50 with NCI-H226 lung is 15.5 µM; in the assay with MOLT-4 leukemia, 9910 nM; in the assay on SW-620 colon it was 12200 nM; in the assay with SK-MEL-28 melanoma, 15600 nM. For the same compound, the TGI with ACHN renal was found to be 47.7 µM; in the assay with M14 melanoma, 31.3 µM; with SN12C renal, 28.6 µM; with HOP-62 NSCLC, 29.8 µM; in the assay on HOP-92 NSCLC, 30.4 µM; in the assay on U251 CNS it was 25.5 µM. The TGI turned out to be 31.3 µM in the assay with NCI-H226 lung, 46.6 µM in the assay on MOLT-4 leukemia, 24.6 µM in the assay on SW-620 colon and 29.3 µM in the assay with SK-MEL-28 melanoma.
On to `CCCCc1c(OC)cc(O)c2c1C(=O)c1[nH]c(C(=O)O)c(O)c(=O)c1C2=O`, for which the TGI is more than 100 µM in the assay with ACHN renal; 34.3 µM in the assay on M14 melanoma; more than 100 µM with SN12C renal; 9.29 µM in the assay with HOP-62 NSCLC; more than 100 µM in the assay with HOP-92 NSCLC; 17.6 µM in the assay with U251 CNS. In addition, the TGI in the assay on NCI-H226 lung was 23.6 µM; with MOLT-4 leukemia, more than 100 µM; with SW-620 colon, more than 100 µM; with SK-MEL-28 melanoma, more than 100 µM.
For the compound `COc1ccc(C(=O)c2cc(OC)c(C)c(OC)c2)cc1OC(=O)CCl`, the GI50 in the assay with ACHN renal is 700 nM; in the assay with M14 melanoma, 69.3 nM; with SN12C renal it was 638 nM; with HOP-62 NSCLC, 668 nM; in the assay with HOP-92 NSCLC it was 3220 nM; in the assay on U251 CNS it was 415 nM. For the same compound, the GI50 was 8 µM in the assay with NCI-H226 lung, 145 nM with MOLT-4 leukemia, 211 nM in the assay with SW-620 colon and 732 nM with SK-MEL-28 melanoma. The TGI with ACHN renal is 35.5 µM; with M14 melanoma, 12.2 µM; with SN12C renal, 37.1 µM; with HOP-62 NSCLC it was more than 100 µM; with HOP-92 NSCLC, 58.5 µM; with U251 CNS it was more than 45.3 µM. For the same compound, the TGI is more than 30.6 µM in the assay with NCI-H226 lung, 18 µM in the assay with MOLT-4 leukemia, more than 100 µM in the assay with SW-620 colon and 40.4 µM in the assay with SK-MEL-28 melanoma.
On to `COc1cc(C(=O)c2cc(C)c3[nH]c4ccc(Cl)cc4c3c2C)cc(OC)c1OC`, for which the GI50 was 59.3 nM in the assay with ACHN renal; 33 nM in the assay with M14 melanoma; 50.9 nM in the assay on SN12C renal; 75.6 nM with HOP-62 NSCLC; 156 nM in the assay with HOP-92 NSCLC; 42.5 nM with U251 CNS. The GI50 in the assay with NCI-H226 lung is 0.679 µM; in the assay with MOLT-4 leukemia it was 46 nM; with SW-620 colon it was 41.5 nM; with SK-MEL-28 melanoma, 1440 nM. Also, the TGI was 12.8 µM in the assay on ACHN renal; 12.4 µM with M14 melanoma; 13.2 µM with SN12C renal; 19.5 µM in the assay with HOP-62 NSCLC; 4.65 µM in the assay with HOP-92 NSCLC; 15 µM in the assay with U251 CNS. Moreover, the TGI in the assay with NCI-H226 lung was 18.3 µM; with MOLT-4 leukemia it was more than 47.4 µM; in the assay on SW-620 colon, 24.8 µM; in the assay with SK-MEL-28 melanoma, 17 µM.
Regarding `O=C1CN=C(C[N+](=O)[O-])c2ccccc21`, the TGI in the assay with ACHN renal, in the assay on M14 melanoma, in the assay on SN12C renal, in the assay on HOP-62 NSCLC, with HOP-92 NSCLC and in the assay with U251 CNS was more than 100 µM in each case. Also, the TGI with NCI-H226 lung, in the assay with MOLT-4 leukemia, in the assay with SW-620 colon and with SK-MEL-28 melanoma was more than 100 µM throughout.
Take `COC(=O)C1=C(c2ccc3c(c2)OCO3)O[C@H](c2cc(OC)c(OC)c(OC)c2)[C@H]1COC(C)=O`: the TGI with ACHN renal was more than 100 µM; in the assay with M14 melanoma, 13.6 µM; in the assay with SN12C renal it was 37.9 µM; in the assay on HOP-62 NSCLC it was 84.7 µM; in the assay with HOP-92 NSCLC, 36 µM; in the assay with U251 CNS, 18.4 µM. For the same compound, the TGI is more than 100 µM with NCI-H226 lung, 27.8 µM in the assay with MOLT-4 leukemia, more than 100 µM in the assay on SW-620 colon and more than 100 µM in the assay on SK-MEL-28 melanoma.
